Where a SMILES comes first, the peptide text is derived from it. [ ]: non-standard residue; d: D form. The star is where a group is joined. Palmitoyl = CCCCCCCCCCCCCCCC(=O)*; αMeF = C[C@](N)(Cc1ccccc1)C(=O)O; αMeK = C[C@](N)(CCCCN)C(=O)O; Aib = CC(C)(N)C(=O)O
Experiments:
Format in all cases: cell-based
Conditions in all cases: n = 2
hGIP-R = biological target: T1, hGIP-R (Homo sapiens, UniProt P48546); assay: cAMP functional assay, cells expressing human GIP receptor (primary assay)
T1 construct: expressed in transfected cells
T1 sequence (P48546 22-466): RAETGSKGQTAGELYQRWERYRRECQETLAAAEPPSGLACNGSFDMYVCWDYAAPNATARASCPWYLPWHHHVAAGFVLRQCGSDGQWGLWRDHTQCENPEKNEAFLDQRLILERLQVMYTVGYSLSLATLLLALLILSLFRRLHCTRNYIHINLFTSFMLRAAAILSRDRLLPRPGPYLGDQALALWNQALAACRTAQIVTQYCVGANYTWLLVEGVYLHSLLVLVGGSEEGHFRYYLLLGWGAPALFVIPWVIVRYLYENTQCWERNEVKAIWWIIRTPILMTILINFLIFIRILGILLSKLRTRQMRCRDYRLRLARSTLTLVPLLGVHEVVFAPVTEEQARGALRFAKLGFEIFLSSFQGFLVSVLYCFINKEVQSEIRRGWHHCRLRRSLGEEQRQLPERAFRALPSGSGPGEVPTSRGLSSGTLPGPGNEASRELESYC

hGluc-R = biological target: T2, hGluc-R (Homo sapiens, UniProt P47871); assay: cAMP functional assay, cells expressing human glucagon receptor (primary assay)
T2 construct: expressed in transfected cells

hGLP-1R = biological target: T3, hGLP-1R (Homo sapiens, UniProt P43220); assay: cAMP functional assay, cells expressing human GLP-1 receptor (primary assay)
T3 construct: expressed in transfected cells
T3 sequence (P43220 24-463): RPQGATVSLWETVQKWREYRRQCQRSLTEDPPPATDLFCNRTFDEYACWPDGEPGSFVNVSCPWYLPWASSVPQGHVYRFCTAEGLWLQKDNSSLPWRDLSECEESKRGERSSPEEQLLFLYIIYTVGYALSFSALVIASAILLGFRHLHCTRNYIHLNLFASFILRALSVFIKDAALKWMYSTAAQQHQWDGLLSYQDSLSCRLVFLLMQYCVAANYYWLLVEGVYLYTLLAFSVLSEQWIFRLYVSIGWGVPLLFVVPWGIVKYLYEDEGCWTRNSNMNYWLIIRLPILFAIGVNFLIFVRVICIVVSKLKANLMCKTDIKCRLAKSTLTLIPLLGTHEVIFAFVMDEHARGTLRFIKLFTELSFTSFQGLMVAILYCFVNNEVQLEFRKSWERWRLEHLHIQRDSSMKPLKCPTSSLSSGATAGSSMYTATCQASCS

T2 sequence (P47871 26-477): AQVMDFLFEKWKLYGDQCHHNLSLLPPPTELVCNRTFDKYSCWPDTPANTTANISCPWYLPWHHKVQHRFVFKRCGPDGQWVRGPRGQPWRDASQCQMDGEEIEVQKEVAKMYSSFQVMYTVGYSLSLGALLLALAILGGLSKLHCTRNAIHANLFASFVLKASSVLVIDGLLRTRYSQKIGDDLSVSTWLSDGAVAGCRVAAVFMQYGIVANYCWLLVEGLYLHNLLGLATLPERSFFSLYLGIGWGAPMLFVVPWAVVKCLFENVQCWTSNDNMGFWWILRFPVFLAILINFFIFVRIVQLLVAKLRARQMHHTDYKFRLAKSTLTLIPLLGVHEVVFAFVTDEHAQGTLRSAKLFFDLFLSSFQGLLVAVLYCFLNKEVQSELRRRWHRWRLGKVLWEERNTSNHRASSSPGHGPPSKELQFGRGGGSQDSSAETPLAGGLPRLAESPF

Compound	EC50 (hGIP-R)	EC50 (hGluc-R)	EC50 (hGLP-1R)
CC[C@H](C)[C@H](NC(=O)[C@H](Cc1ccccc1)NC(=O)[C@H](CCC(=O)O)NC(=O)[C@H](CCCCN)NC(=O)[C@H](C)NC(=O)[C@H](C)NC(=O)[C@H](CCC(N)=O)NC(=O)CNC(=O)[C@H](CCC(=O)O)NC(=O)[C@H](CC(C)C)NC(=O)[C@H](Cc1ccc(O)cc1)NC(=O)[C@H](CO)NC(=O)[C@H](CO)NC(=O)[C@@H](NC(=O)[C@H](CC(=O)O)NC(=O)[C@H](CO)NC(=O)[C@@H](NC(=O)[C@H](Cc1ccccc1)NC(=O)[C@@H](NC(=O)CNC(=O)[C@H](CCC(=O)O)NC(=O)C(C)(C)NC(=O)[C@@H](N)Cc1c[nH]cn1)[C@@H](C)O)[C@@H](C)O)C(C)C)C(=O)N[C@@H](C)C(=O)N[C@@H](Cc1c[nH]c2ccccc12)C(=O)N[C@@H](CC(C)C)C(=O)N[C@H](C(=O)N[C@@](C)(CCCCN)C(=O)NCC(=O)N[C@@H](CCCNC(=N)N)C(N)=O)C(C)C [SEQ ID NO: 22, H-(Aib)^2-EGT^5 FTSDV^10 SSYLE^15 GQAAK^20 EFIAW^25 LV-(α-MeK)^28-GR^30]	91.4 nM	91.4 nM	0.019 nM
CC[C@H](C)[C@H](NC(=O)[C@H](Cc1ccccc1)NC(=O)[C@H](CCC(=O)O)NC(=O)[C@H](CCCCN)NC(=O)[C@H](C)NC(=O)[C@H](C)NC(=O)[C@H](CCC(N)=O)NC(=O)CNC(=O)[C@H](CCC(=O)O)NC(=O)[C@H](CC(C)C)NC(=O)[C@H](Cc1ccc(O)cc1)NC(=O)[C@H](CO)NC(=O)[C@H](CO)NC(=O)[C@@H](NC(=O)[C@H](CC(=O)O)NC(=O)[C@H](CO)NC(=O)[C@@H](NC(=O)[C@H](Cc1ccccc1)NC(=O)[C@@H](NC(=O)CNC(=O)[C@H](CCC(=O)O)NC(=O)C(C)(C)NC(=O)[C@@H](N)Cc1c[nH]cn1)[C@@H](C)O)[C@@H](C)O)C(C)C)C(=O)N[C@@H](C)C(=O)N[C@@H](Cc1c[nH]c2ccccc12)C(=O)N[C@@H](CC(C)C)C(=O)N[C@H](C(=O)NC(C)(C)C(=O)NCC(=O)N[C@@H](CCCNC(=N)N)C(N)=O)C(C)C [SEQ ID NO: 23, H-(Aib)^2-EGT^5 FTSDV^10 SSYLE^15 GQAAK^20 EFIAW^25 LV-(Aib)^28-GR^30]	105 nM	103 nM	0.0279 nM
CC[C@H](C)[C@H](NC(=O)[C@H](Cc1ccccc1)NC(=O)[C@H](CCC(=O)O)NC(=O)[C@H](CCCCN)NC(=O)[C@H](C)NC(=O)[C@H](C)NC(=O)[C@H](CCC(N)=O)NC(=O)CNC(=O)[C@H](CCC(=O)O)NC(=O)[C@H](CC(C)C)NC(=O)[C@H](Cc1ccc(O)cc1)NC(=O)[C@H](CO)NC(=O)[C@H](CO)NC(=O)[C@@H](NC(=O)[C@H](CC(=O)O)NC(=O)[C@H](CO)NC(=O)[C@@H](NC(=O)[C@H](Cc1ccccc1)NC(=O)[C@@H](NC(=O)CNC(=O)[C@H](CCC(=O)O)NC(=O)C(C)(C)NC(=O)[C@@H](N)Cc1c[nH]cn1)[C@@H](C)O)[C@@H](C)O)C(C)C)C(=O)N[C@@H](C)C(=O)N[C@@H](Cc1c[nH]c2ccccc12)C(=O)N[C@@H](CC(C)C)C(=O)N[C@H](C(=O)N[C@@H](CCCCN)C(=O)NCC(=O)N[C@@](C)(CCCNC(=N)N)C(N)=O)C(C)C [SEQ ID NO: 24, H-(Aib)^2-EGT^5 FTSDV^10 SSYLE^15 GQAAK^20 EFIAW^25 LVKG-(α-MeR)^30]	111 nM	111 nM	0.021 nM
CC[C@H](C)[C@H](NC(=O)[C@](C)(Cc1ccccc1)NC(=O)[C@H](CCC(=O)O)NC(=O)[C@H](CCCCN)NC(=O)[C@H](C)NC(=O)[C@H](C)NC(=O)[C@H](CCC(N)=O)NC(=O)CNC(=O)[C@H](CCC(=O)O)NC(=O)[C@H](CC(C)C)NC(=O)[C@](C)(Cc1ccccc1)NC(=O)[C@H](CO)NC(=O)[C@H](CO)NC(=O)[C@@H](NC(=O)[C@H](CC(=O)O)NC(=O)[C@H](CO)NC(=O)[C@@H](NC(=O)[C@](C)(Cc1ccccc1)NC(=O)[C@H](CO)NC(=O)CNC(=O)[C@H](CCC(=O)O)NC(=O)C(C)(C)NC(=O)[C@@H](N)Cc1c[nH]cn1)[C@@H](C)O)C(C)C)C(=O)N[C@@H](C)C(=O)N[C@@](C)(Cc1ccccc1)C(=O)N[C@@H](CC(C)C)C(=O)N[C@H](C(=O)N[C@@](C)(CCCCN)C(=O)NCC(=O)NCC(N)=O)C(C)C [SEQ ID NO: 45, H-(Aib)^2-EG-(S)^5-(α-MeF)^6-TSDV^10 SS-(α-MeF)^13-LE^15 GQAAK^20 E-(α-MeF)^22-IA-(α-MeF)^25 LV-(α-MeK)^28-G-(G)^30] (H-H[Aib]EGS[αMeF]TSDVSS[αMeF]LEGQAAKE[αMeF]IA[αMeF]LV[αMeK]GG-NH2)	104 nM	104 nM	0.0223 nM
CCCCCCCCCCCCCCCC(=O)NCCCC[C@H](NC(=O)CNC(=O)CNC(=O)[C@](C)(CCCCN)NC(=O)[C@@H](NC(=O)[C@H](CC(C)C)NC(=O)[C@](C)(Cc1ccccc1)NC(=O)[C@H](C)NC(=O)[C@@H](NC(=O)[C@](C)(Cc1ccccc1)NC(=O)[C@H](CCC(=O)O)NC(=O)[C@](C)(CCCCN)NC(=O)[C@H](C)NC(=O)[C@H](C)NC(=O)[C@H](CCC(N)=O)NC(=O)CNC(=O)[C@H](CCC(=O)O)NC(=O)[C@H](CC(C)C)NC(=O)[C@](C)(Cc1ccccc1)NC(=O)[C@H](CO)NC(=O)[C@H](CO)NC(=O)[C@@H](NC(=O)[C@H](CC(=O)O)NC(=O)[C@H](CO)NC(=O)[C@@H](NC(=O)[C@](C)(Cc1ccccc1)NC(=O)[C@H](CO)NC(=O)CNC(=O)[C@H](CCC(=O)O)NC(=O)C(C)(C)NC(=O)[C@@H](N)Cc1c[nH]cn1)[C@@H](C)O)C(C)C)[C@@H](C)CC)C(C)C)C(N)=O [SEQ ID NO: 47, H-(Aib)^2-EG-(S)^5-(α-MeF)^6-TSDV^10 SS-(α-MeF)^13-LE^15 GQAA-(α-MeK)^20 E-(α-MeF)^22-IA-(α-MeF)^25 LV-(α-MeK)^28-G-(G)^30-K(Ε-Palm)] (H-H[Aib]EGS[αMeF]TSDVSS[αMeF]LEGQAA[αMeK]E[αMeF]IA[αMeF]LV[αMeK]GGK(Palmitoyl)-NH2)	92.7 nM	92.7 nM	0.105 nM

More lines, now with the values ahead:

EC50 (hGIP-R)	EC50 (hGluc-R)	EC50 (hGLP-1R)	Compound
96.4 nM	96.4 nM	0.0277 nM	CC[C@H](C)[C@H](NC(=O)[C@H](Cc1ccccc1)NC(=O)[C@H](CCC(=O)O)NC(=O)[C@H](CCCCN)NC(=O)[C@H](C)NC(=O)[C@H](C)NC(=O)[C@H](CCC(N)=O)NC(=O)CNC(=O)[C@H](CCC(=O)O)NC(=O)[C@H](CC(C)C)NC(=O)[C@H](Cc1ccc(O)cc1)NC(=O)[C@H](CO)NC(=O)[C@H](CO)NC(=O)[C@@H](NC(=O)[C@H](CC(=O)O)NC(=O)[C@H](CO)NC(=O)[C@@H](NC(=O)[C@H](Cc1ccccc1)NC(=O)[C@@H](NC(=O)CNC(=O)[C@H](CCC(=O)O)NC(=O)C(C)(C)NC(=O)[C@@H](N)Cc1c[nH]cn1)[C@@H](C)O)[C@@H](C)O)C(C)C)C(=O)N[C@@H](C)C(=O)N[C@@H](Cc1c[nH]c2ccccc12)C(=O)N[C@@H](CC(C)C)C(=O)N[C@H](C(=O)N[C@@H](CCCCN)C(=O)NCC(=O)NC(C)(C)C(N)=O)C(C)C [SEQ ID NO: 25, H-(Aib)^2-EGT^5 FTSDV^10 SSYLE^15 GQAAK^20 EFIAW^25 LVKG-(Aib)^30]
104 nM	104 nM	0.00985 nM	CC[C@H](C)[C@H](NC(=O)[C@](C)(Cc1ccccc1)NC(=O)[C@H](CCC(=O)O)NC(=O)[C@](C)(CCCCN)NC(=O)[C@H](C)NC(=O)[C@H](C)NC(=O)[C@H](CCC(N)=O)NC(=O)CNC(=O)[C@H](CCC(=O)O)NC(=O)[C@H](CC(C)C)NC(=O)[C@](C)(Cc1ccccc1)NC(=O)[C@H](CO)NC(=O)[C@H](CO)NC(=O)[C@@H](NC(=O)[C@H](CC(=O)O)NC(=O)[C@H](CO)NC(=O)[C@@H](NC(=O)[C@](C)(Cc1ccccc1)NC(=O)[C@H](CO)NC(=O)CNC(=O)[C@H](CCC(=O)O)NC(=O)C(C)(C)NC(=O)[C@@H](N)Cc1c[nH]cn1)[C@@H](C)O)C(C)C)C(=O)N[C@@H](C)C(=O)N[C@@](C)(Cc1ccccc1)C(=O)N[C@@H](CC(C)C)C(=O)N[C@H](C(=O)N[C@@H](CCCCN)C(=O)NCC(=O)NCC(N)=O)C(C)C [SEQ ID NO: 44, H-(Aib)^2-EG-(S)^5-(α-MeF)^6-TSDV^10 SS-(α-MeF)^13-LE^15 GQAA-(α-MeK)^20 E-(α-MeF)^22-IA-(α-MeF)^25 LVKG-(G)^30] (H-H[Aib]EGS[αMeF]TSDVSS[αMeF]LEGQAA[αMeK]E[αMeF]IA[αMeF]LVKGG-NH2)
82.9 nM	82.9 nM	0.0238 nM	CC[C@H](C)[C@H](NC(=O)[C@](C)(Cc1ccccc1)NC(=O)[C@H](CCC(=O)O)NC(=O)[C@H](CCCCN)NC(=O)[C@H](C)NC(=O)[C@H](C)NC(=O)[C@H](CCC(N)=O)NC(=O)CNC(=O)[C@H](CCC(=O)O)NC(=O)[C@H](CC(C)C)NC(=O)[C@](C)(Cc1ccccc1)NC(=O)[C@H](CO)NC(=O)[C@H](CO)NC(=O)[C@@H](NC(=O)[C@H](CC(=O)O)NC(=O)[C@H](CO)NC(=O)[C@@H](NC(=O)[C@](C)(Cc1ccccc1)NC(=O)[C@H](CO)NC(=O)CNC(=O)[C@H](CCC(=O)O)NC(=O)C(C)(C)NC(=O)[C@@H](N)Cc1c[nH]cn1)[C@@H](C)O)C(C)C)C(=O)N[C@@H](C)C(=O)N[C@@](C)(Cc1ccccc1)C(=O)N[C@@H](CC(C)C)C(=O)N[C@H](C(=O)N[C@@H](CCCCN)C(=O)NCC(=O)NCC(=O)N[C@@H](CO)C(=O)N[C@@H](CO)C(=O)NCC(=O)N[C@@H](CO)C(=O)N[C@@H](CO)C(=O)NCC(=O)N[C@@H](CO)C(=O)N[C@@H](CO)C(=O)NCC(=O)N[C@@H](CCCCN)C(N)=O)C(C)C [SEQ ID NO: 48, H-(Aib)^2-EG-(S)^5-(α-MeF)^6-TSDV^10 SS-(α-MeF)^13-LE^15 GQAAK^20 E-(α-MeF)^22-IA-(α-MeF)^25 LVKG-(G)^30-(SSG)3-K] (H-H[Aib]EGS[αMeF]TSDVSS[αMeF]LEGQAAKE[αMeF]IA[αMeF]LVKGGSSGSSGSSGK-NH2)

— patent publication US20160318987A1 (MEDIMMUNE LIMITED, priority 2013, published 2016)
